Assays:
Assay in all cases: KINOMEscan competition binding
Details in all cases: compound 10.0 µM
[1] = target: CAMK4 (human) (UniProt Q16566)
[2] = target: LATS2 (human) (UniProt Q9NRM7)
[3] = target: NUAK1 (human) (UniProt O60285)
[4] = target: STK10 (human) (UniProt O94804)
[5] = target: MAPKAPK5 (human) (UniProt Q8IW41)
[6] = target: ANKK1 (human) (UniProt Q8NFD2)
[7] = target: ACVRL1 (human) (UniProt P37023)
[8] = target: RET (human) (UniProt P07949)
[9] = target: RPS6KA6 KD2 (human) (UniProt Q9UK32)
[10] = target: CAMKK1 (human) (UniProt Q8N5S9)
[11] = target: NEK2 (human) (UniProt P51955)
[12] = target: PRKCE (human) (UniProt Q02156)
[13] = target: EPHB2 (human) (UniProt P29323)
[14] = target: EPHA6 (human) (UniProt Q9UF33)
[15] = target: ULK3 (human) (UniProt Q6PHR2)
[16] = target: DCLK3 (human) (UniProt Q9C098)
[17] = target: MAP4K2 (human) (UniProt Q12851)
[18] = target: PIM3 (human) (UniProt Q86V86)
[19] = target: NTRK2 (human) (UniProt Q16620)
[20] = target: PRKG2 (human) (UniProt Q13237)
[21] = target: DAPK1 (human) (UniProt P53355)
[22] = target: RIPK4 (human) (UniProt P57078)
[23] = target: ERBB4 (human) (UniProt Q15303)
[24] = target: AKT1 (human) (UniProt P31749)
[25] = target: MAPKAPK2 (human) (UniProt P49137)
[26] = target: CDK11B (human) (UniProt P21127)
[27] = target: CAMK1D (human) (UniProt Q8IU85)
[28] = target: FLT1 (human) (UniProt P17948)
[29] = target: LYN (human) (UniProt P07948)
[30] = target: RPS6KA2 KD1 (human) (UniProt Q15349)
[31] = target: MYLK4 (human) (UniProt Q86YV6)
[32] = target: TEK (human) (UniProt Q02763)
[33] = target: PRKG1 (human) (UniProt Q13976)
[34] = target: DCLK2 (human) (UniProt Q8N568)
[35] = target: PHKG1 (human) (UniProt Q16816)
[36] = target: MAP3K12 (human) (UniProt Q12852)
[37] = target: WEE1 (human) (UniProt P30291)
[38] = target: RPS6KA5 KD2 (human) (UniProt O75582)
[39] = target: MAPK15 (human) (UniProt Q8TD08)
[40] = tested on: KIT (human), P10721 [D816V]

Sequence of ACVRL1 (human) (P37023 whole entry, looked up): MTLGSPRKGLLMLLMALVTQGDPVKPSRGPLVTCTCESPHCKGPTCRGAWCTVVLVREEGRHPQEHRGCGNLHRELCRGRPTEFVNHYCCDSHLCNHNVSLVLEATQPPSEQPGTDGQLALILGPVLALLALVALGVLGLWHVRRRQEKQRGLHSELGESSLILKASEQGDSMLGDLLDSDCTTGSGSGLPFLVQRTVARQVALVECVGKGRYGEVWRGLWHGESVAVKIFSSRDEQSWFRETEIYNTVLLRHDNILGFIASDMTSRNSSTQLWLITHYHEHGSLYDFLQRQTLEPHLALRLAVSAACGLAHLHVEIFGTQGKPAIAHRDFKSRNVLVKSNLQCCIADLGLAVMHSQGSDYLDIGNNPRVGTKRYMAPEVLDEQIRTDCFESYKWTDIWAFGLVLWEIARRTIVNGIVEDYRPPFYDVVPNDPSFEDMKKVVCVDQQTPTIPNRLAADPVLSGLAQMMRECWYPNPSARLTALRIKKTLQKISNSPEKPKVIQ
Sequence of PRKG2 (human) (Q13237 whole entry, looked up): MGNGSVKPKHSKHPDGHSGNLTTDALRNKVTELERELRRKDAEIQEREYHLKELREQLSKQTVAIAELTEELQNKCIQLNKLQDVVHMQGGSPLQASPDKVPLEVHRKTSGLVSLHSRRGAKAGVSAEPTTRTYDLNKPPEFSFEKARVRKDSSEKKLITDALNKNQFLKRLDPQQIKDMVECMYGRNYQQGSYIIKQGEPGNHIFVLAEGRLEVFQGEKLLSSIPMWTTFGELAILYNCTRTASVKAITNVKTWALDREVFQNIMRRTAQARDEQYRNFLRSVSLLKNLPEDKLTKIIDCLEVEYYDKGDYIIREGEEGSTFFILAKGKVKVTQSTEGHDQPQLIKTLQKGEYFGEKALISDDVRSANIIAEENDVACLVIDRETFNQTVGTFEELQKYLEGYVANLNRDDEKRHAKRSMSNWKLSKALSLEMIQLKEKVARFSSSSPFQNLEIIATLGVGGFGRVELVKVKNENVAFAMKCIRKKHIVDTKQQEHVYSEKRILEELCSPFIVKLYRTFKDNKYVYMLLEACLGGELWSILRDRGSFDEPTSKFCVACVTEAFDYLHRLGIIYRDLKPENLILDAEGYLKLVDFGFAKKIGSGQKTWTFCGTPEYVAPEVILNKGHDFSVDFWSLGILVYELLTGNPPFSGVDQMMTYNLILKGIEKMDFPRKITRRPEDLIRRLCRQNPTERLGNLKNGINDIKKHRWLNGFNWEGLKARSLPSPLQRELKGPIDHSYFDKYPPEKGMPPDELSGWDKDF
Sequence of EPHB2 (human) (P29323 whole entry, looked up): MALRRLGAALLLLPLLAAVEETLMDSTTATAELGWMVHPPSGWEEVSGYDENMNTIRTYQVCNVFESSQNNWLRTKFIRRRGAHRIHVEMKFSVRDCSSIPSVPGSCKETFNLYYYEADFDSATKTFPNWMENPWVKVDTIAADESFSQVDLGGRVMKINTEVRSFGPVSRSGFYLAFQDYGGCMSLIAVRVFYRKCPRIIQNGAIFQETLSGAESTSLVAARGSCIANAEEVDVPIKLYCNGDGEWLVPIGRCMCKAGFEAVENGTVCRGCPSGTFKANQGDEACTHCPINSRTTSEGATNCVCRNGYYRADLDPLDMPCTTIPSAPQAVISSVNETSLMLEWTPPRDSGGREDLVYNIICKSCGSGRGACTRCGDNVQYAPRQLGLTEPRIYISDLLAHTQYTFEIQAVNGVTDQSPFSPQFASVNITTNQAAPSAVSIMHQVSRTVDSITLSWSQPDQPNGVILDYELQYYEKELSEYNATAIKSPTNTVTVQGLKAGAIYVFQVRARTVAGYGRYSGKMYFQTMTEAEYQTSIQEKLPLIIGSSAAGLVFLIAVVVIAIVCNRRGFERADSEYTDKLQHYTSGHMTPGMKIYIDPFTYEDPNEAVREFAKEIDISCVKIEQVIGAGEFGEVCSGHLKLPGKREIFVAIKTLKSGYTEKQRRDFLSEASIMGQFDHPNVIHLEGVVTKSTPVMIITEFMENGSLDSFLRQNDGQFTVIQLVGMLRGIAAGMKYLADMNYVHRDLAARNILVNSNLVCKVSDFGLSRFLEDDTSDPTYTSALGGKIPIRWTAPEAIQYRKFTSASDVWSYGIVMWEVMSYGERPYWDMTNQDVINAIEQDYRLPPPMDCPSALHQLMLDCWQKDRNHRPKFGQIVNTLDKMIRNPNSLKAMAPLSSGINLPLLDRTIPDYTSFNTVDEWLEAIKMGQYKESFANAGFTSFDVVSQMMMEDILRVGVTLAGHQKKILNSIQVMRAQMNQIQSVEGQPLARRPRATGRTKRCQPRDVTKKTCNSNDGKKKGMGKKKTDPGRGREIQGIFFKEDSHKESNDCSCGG
Sequence of MAPKAPK5 (human) (Q8IW41 whole entry, looked up): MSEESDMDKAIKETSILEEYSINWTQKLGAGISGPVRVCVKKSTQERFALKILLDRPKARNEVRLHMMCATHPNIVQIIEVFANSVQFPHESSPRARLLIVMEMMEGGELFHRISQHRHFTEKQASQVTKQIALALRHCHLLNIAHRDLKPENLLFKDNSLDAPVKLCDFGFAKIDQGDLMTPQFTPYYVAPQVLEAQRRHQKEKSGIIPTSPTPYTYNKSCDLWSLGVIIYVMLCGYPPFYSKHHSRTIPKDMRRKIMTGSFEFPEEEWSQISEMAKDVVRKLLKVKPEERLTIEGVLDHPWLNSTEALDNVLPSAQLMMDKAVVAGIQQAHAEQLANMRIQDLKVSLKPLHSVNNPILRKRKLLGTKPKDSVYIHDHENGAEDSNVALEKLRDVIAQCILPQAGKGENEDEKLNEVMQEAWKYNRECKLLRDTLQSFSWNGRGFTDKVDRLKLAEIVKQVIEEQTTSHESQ
Sequence of DAPK1 (human) (P53355 whole entry, looked up): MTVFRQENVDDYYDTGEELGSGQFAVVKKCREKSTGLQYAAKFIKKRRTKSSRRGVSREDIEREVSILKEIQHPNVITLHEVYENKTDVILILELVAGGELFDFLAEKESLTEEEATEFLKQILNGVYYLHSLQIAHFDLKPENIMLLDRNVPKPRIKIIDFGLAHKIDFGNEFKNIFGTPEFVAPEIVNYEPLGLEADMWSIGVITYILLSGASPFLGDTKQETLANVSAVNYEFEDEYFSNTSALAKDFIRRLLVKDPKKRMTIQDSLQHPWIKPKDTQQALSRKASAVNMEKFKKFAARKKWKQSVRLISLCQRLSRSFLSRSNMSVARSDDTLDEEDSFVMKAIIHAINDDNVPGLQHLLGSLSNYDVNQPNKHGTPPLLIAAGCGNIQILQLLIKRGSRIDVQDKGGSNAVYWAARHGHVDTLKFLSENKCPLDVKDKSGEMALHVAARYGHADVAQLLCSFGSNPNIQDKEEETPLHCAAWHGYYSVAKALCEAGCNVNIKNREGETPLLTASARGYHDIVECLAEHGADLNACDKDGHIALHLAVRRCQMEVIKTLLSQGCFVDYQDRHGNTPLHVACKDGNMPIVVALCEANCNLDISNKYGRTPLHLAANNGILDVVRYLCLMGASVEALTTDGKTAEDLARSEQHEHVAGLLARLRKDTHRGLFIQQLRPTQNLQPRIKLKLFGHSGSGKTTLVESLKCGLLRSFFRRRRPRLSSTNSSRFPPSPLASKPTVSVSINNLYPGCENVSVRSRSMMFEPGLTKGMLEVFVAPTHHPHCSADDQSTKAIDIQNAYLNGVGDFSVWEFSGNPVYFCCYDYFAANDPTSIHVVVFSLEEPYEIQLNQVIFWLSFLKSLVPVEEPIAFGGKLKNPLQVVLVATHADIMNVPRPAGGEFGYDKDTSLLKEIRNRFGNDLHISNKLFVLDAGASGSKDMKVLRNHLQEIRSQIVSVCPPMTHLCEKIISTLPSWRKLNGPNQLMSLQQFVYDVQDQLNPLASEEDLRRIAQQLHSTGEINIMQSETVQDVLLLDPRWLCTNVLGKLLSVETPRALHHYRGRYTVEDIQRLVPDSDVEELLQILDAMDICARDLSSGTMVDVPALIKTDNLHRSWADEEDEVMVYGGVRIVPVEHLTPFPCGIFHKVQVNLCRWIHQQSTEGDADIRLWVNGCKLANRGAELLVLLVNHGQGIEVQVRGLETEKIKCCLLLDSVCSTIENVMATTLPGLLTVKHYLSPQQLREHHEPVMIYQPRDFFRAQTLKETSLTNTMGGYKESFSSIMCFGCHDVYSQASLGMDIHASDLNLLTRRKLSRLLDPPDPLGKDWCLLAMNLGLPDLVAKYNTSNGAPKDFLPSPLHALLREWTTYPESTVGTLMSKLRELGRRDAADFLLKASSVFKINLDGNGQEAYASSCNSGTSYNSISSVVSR
Sequence of CAMK1D (human) (Q8IU85 whole entry, looked up): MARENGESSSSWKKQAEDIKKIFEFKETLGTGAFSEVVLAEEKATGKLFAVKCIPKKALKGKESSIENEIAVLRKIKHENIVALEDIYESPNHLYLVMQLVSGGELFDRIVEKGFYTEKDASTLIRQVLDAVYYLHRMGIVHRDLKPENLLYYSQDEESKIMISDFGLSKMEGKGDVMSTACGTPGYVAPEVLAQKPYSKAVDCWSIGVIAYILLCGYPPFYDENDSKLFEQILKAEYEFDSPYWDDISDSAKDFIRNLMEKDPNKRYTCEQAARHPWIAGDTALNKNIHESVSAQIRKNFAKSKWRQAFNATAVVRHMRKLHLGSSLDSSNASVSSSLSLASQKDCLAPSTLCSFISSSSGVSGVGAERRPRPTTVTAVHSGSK
Sequence of PHKG1 (human) (Q16816 whole entry, looked up): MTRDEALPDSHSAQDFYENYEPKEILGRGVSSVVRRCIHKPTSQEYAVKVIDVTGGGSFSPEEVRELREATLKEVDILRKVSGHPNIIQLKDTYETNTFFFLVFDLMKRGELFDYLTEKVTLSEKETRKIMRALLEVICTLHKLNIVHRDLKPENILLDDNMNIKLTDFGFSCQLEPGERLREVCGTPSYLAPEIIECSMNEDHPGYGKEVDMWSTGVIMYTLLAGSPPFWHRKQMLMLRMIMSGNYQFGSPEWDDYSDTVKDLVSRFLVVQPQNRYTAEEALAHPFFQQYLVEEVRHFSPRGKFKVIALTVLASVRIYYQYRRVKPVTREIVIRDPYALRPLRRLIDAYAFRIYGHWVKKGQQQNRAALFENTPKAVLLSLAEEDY

Structure (SMILES)	kinase still bound, per cent of control [1] [%]	kinase still bound, per cent of control [2] [%]	kinase still bound, per cent of control [3] [%]	kinase still bound, per cent of control [4] [%]	kinase still bound, per cent of control [5] [%]	kinase still bound, per cent of control [6] [%]	kinase still bound, per cent of control [7] [%]	kinase still bound, per cent of control [8] [%]	kinase still bound, per cent of control [9] [%]	kinase still bound, per cent of control [10] [%]	kinase still bound, per cent of control [11] [%]	kinase still bound, per cent of control [12] [%]	kinase still bound, per cent of control [13] [%]	kinase still bound, per cent of control [14] [%]	kinase still bound, per cent of control [15] [%]	kinase still bound, per cent of control [16] [%]	kinase still bound, per cent of control [17] [%]	kinase still bound, per cent of control [18] [%]	kinase still bound, per cent of control [19] [%]	kinase still bound, per cent of control [20] [%]	further results
CN(C)C/C=C/C(=O)Nc1cccc(Nc2ncc3c(n2)N(C)c2ccccc2C(=O)N3C)c1	100	97	0.85	30	85	6	100	0.15	0.6	39	62	67	100	91	45	0.5	13	100	4	81	kinase still bound, per cent of control [21]: 52%; kinase still bound, per cent of control [22]: 1%; kinase still bound, per cent of control [23]: 100%; kinase still bound, per cent of control [24]: 100%; kinase still bound, per cent of control [25]: 100%; kinase still bound, per cent of control [26]: 100%; kinase still bound, per cent of control [27]: 59%; kinase still bound, per cent of control [28]: 83%; kinase still bound, per cent of control [29]: 52%; kinase still bound, per cent of control [30]: 50%; kinase still bound, per cent of control [31]: 86%; kinase still bound, per cent of control [32]: 35%; kinase still bound, per cent of control [33]: 100%; kinase still bound, per cent of control [34]: 0.5%; kinase still bound, per cent of control [35]: 69%; kinase still bound, per cent of control [36]: 38%; kinase still bound, per cent of control [37]: 100%; kinase still bound, per cent of control [38]: 80%; kinase still bound, per cent of control [39]: 100%; kinase still bound, per cent of control [40]: 7.4%
COc1cc(C(=O)NC2CCN(C)CC2)ccc1Nc1ncc2c(n1)N(C1CCCC1)CCC(=O)N2C(C)C	100	100	100	100	100	100	100	100	100	100	100	100	100	100	100	100	100	100	100	100	kinase still bound, per cent of control [21]: 100%; kinase still bound, per cent of control [22]: 100%; kinase still bound, per cent of control [23]: 100%; kinase still bound, per cent of control [24]: 100%; kinase still bound, per cent of control [25]: 100%; kinase still bound, per cent of control [26]: 100%; kinase still bound, per cent of control [27]: 100%; kinase still bound, per cent of control [28]: 100%; kinase still bound, per cent of control [29]: 100%; kinase still bound, per cent of control [30]: 100%; kinase still bound, per cent of control [31]: 100%; kinase still bound, per cent of control [32]: 100%; kinase still bound, per cent of control [33]: 100%; kinase still bound, per cent of control [34]: 100%; kinase still bound, per cent of control [35]: 100%; kinase still bound, per cent of control [36]: 100%; kinase still bound, per cent of control [37]: 100%; kinase still bound, per cent of control [38]: 100%; kinase still bound, per cent of control [39]: 100%; kinase still bound, per cent of control [40]: 100%
